In doi:10.64898/2025.12.27.696692v1, “A coelenterazine-dependent luciferase from the deep-sea coral Anthoptilum murrayi Kölliker, 1880 (Cnidaria: Octocorallia: Pennatulacea)” (biorxiv, 2025):

Tested on: T1, AnmLuc (recombinant Anthoptilum murrayi luciferase)
T1 construct: codon-optimised, pET-28a(+), N-terminal His6 (no cleavage told); E. coli ArcticExpress (DE3), Ni-NTA
Assay: luminometry, Michaelis-Menten nonlinear fit
Format: biochemical
Settings: 50 mM sodium phosphate pH 7.5, 25 °C; coelenterazine 0.04–50 µM

Oc1ccc(Cc2nc3c(Cc4ccccc4)nc(-c4ccc(O)cc4)cn3c2O)cc1 [coelenterazine]
Km: 3.39 µM
